Series [1] in a line: Metabolic stability in human liver microsomes. The settings on record: for Remaining (NCF = 60 min) / Remaining (T = 60 min): human liver microsomes; for Remaining (NCF = 60 min): no co-factor (no NADPH); for Remaining (T = 60 min): 60 min with NADPH.
Series [2] relates to THP1 cells. Description: THP1-Dual cells, cell viability (CellTiter-Glo). Type of series: cell-based. An outline of the steps:
(§1)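 THP1-Dual cells were treated with compounds at various dilutions for 4 h, then transfected with DNA (2 ug/ml) using lipofectamine and incubated overnight. Supernatant Ifnb reporter was read with Quantiluc and nfkb reporter with Quantiblue; viability was measured by CellTiter-Glo.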
In general terms: Cellular ATP, detected with luciferase, serves as a proxy for viable cell number.

The test system of series [3] is IFNB. The experiment in a line: THP1-Dual cells transfected with DNA, Ifnb expression (Quantiluc). It is filed as cell-based. The following applies: Homo sapiens; for inhibition at 10 µM: THP-1, 10 μM; for inhibition at 30 µM: THP-1, 30 μM. An outline of the steps:
as §1

A short description of series [4]: Metabolic stability in mouse liver microsomes. The settings on record: for Remaining (NCF = 60 min) / Remaining (T = 60 min): mouse liver microsomes; for Remaining (NCF = 60 min): no co-factor (no NADPH); for Remaining (T = 60 min): 60 min with NADPH; for CLint scaled / half-life / microsomal CLint: mouse, liver microsomes. (In general: Microsomes from liver hold many membrane-bound enzymes, among them those of drug oxidation.)

In series [5] the test system is NFkB-SEAP. Description: THP1-Dual cells transfected with DNA, nfkb expression (Quantiblue). It is filed as cell-based. The following applies: Homo sapiens; for inhibition at 10 µM: THP-1, 10 μM; for inhibition at 30 µM: THP-1, 30 μM. The procedure, abridged: as §1
The target of series [6] is h-cGAS (Homo sapiens, UniProt Q8N884). The experiment in a line: Cell-free human cGAS enzyme inhibition assay (ATP depletion, Kinase-Glo Max). Type of series: biochemical. The settings on record: 3 h; for inhibition at 1 µM: read-out: h-cGAS, conc. 1 μM; for inhibition at 10 µM: read-out: h-cGAS, conc. 10 μM. Background: In Kinase-Glo more light means more ATP remaining.

Series [7] concerns the target m-cGAS (Mus musculus, UniProt Q8C6L5). The experiment in a line: Cell-free mouse cGAS enzyme inhibition assay (ATP depletion, Kinase-Glo Max). Type of series: biochemical. The settings on record: 1 h; for inhibition at 10 µM: read-out: m-cGAS, conc. 10 μM; for inhibition at 1 µM: read-out: m-cGAS, conc. 1 μM.
The nature of series [8]: Protein binding in mouse brain homogenates. It is filed as in vitro ADME. The following applies: for recovery at 6 h / fraction unbound at 6 hr: brain homogenate; for fraction unbound at 6 hr: read-out: % BoundBrain (converted).

Here are results for seven compounds from patent US20250163052A1, “cGAS INHIBITORS AND USES THEREOF” (Cornell University, priority 2022, published 2025).

What is called CLint scaled is a measure of how fast metabolising enzymes remove a compound, apart from limits set by blood flow. A high value points to rapid turnover. The half-life is the time in which the quantity being followed falls by half. In general, microsomal CLint refers to a measure of how fast metabolising enzymes remove a compound, apart from limits set by blood flow.

Bounds are passed on as bounds.

h-cGAS, sequence (Q8N884 whole entry): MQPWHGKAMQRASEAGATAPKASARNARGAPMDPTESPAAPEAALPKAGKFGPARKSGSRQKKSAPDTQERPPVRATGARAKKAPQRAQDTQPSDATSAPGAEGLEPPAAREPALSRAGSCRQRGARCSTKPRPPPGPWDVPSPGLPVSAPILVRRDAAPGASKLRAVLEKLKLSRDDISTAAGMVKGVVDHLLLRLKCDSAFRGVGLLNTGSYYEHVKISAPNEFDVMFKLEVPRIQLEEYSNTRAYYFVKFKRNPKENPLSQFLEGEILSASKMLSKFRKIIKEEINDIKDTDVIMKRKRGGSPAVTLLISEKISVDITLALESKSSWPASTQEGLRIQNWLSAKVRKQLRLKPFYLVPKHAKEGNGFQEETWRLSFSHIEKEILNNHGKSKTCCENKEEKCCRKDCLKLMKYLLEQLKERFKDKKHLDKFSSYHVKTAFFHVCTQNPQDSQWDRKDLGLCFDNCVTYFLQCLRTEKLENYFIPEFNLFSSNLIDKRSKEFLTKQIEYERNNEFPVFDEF
m-cGAS, sequence (Q8C6L5 whole entry): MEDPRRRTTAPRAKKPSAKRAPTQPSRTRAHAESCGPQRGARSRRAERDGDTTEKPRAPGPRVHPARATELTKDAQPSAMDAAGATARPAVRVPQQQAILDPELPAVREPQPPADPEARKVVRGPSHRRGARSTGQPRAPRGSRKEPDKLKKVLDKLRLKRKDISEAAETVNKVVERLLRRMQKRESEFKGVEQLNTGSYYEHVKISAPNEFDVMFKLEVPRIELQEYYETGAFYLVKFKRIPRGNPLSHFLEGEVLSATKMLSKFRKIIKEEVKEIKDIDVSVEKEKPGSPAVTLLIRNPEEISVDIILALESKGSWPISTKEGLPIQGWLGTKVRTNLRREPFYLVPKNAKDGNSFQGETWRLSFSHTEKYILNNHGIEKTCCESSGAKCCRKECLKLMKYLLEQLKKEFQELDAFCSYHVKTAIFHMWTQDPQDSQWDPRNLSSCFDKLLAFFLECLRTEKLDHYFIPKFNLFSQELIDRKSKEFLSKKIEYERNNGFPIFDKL

Consider `Cn1cc(-c2cc(Cl)c(Cl)c3c2c2c(n3C)CCN(C(=O)CN)C2)cn1` [Compound 11], for which, in series [1], the “Remaining (NCF = 60 min)” value is listed as 116.1% and the “Remaining (T = 60 min)” value amounted to 88.2%. In series [1] (human, liver microsomes), this compound returned a CLint scaled of less than 8.6 mL/min/kg, a half-life of more than 2.42 h and a microsomal CLint of less than 9.6 µL/min/mg. For the same compound, in series [2], the “Cell viability 10 μM” value is “++ (+, ++, and +++ mean the compound respectively shows 25-49%; 50-74%; or 75-100% viability to cells)”; the “Cell viability 30 μM” value is on record as “− (Cell viability <24%, in THP1 cells is expressed as “−”)”. In series [3], this compound had an inhibition at 10 µM of 50 to 74% and an inhibition at 30 µM of 75 to 100%. Moreover, in series [4], the “Remaining (NCF = 60 min)” value was determined as 97.7%, the “Remaining (T = 60 min)” value is 80.1%, the intrinsic clearance (CLint scaled) is less than 38 mL/min/kg and the half-life was more than 2.42 h. For the same compound, the intrinsic clearance (microsomal CLint) in series [4] was less than 9.6 µL/min/mg. Moreover, in series [5], the inhibition at 10 µM was less than 24% and the inhibition at 30 µM fell in the range of 50 to 74%. Besides, in series [6], the inhibition at 1 µM was in the range of 75 to 100% and the inhibition at 10 µM fell in the range of 75 to 100%. For the same compound, the inhibition at 10 µM in series [7] was in the range of 25 to 49%.

On to `Cn1cc(-c2cc(Cl)c(Cl)c3nc4c(n23)CN(C(=O)CO)CC4)cn1` [Compound 99], for which, in series [8], the LogK is 0.64, the “% Remaining at 6 hr” value was 99.35%, the recovery at 6 h amounted to 90.1% and the fraction unbound at 6 hr was 0.19. In series [6], the inhibition at 10 µM fell in the range of 0 to 24%. Further, the inhibition at 10 µM in series [7] was in the range of 0 to 24%.

With `Cn1cc(-c2cc(Cl)c(Cl)c3sc4c(c23)CN(C(=O)CN)CC4)cn1` [Compound 54], in series [1], the “Remaining (NCF = 60 min)” value is listed as 129.8% and the “Remaining (T = 60 min)” value worked out at 85.4%. In series [1] (human, liver microsomes), this compound registered an intrinsic metabolic clearance (CLint scaled) of less than 8.6 mL/min/kg, a half-life of more than 2.42 h and an intrinsic metabolic clearance (microsomal CLint) of less than 9.6 µL/min/mg. In series [2], the “Cell viability 10 μM” value is “++ (+, ++, and +++ mean the compound respectively shows 25-49%; 50-74%; or 75-100% viability to cells)”; the “Cell viability 30 μM” value is listed as “− (Cell viability <24%, in THP1 cells is expressed as “−”)”. In series [3], this compound displayed an inhibition at 10 µM of 75 to 100% and an inhibition at 30 µM of 75 to 100%. For the same compound, in series [4], the “Remaining (NCF = 60 min)” value was found to be 94.5%, the “Remaining (T = 60 min)” value amounted to 82.0%, the CLint scaled was less than 38 mL/min/kg and the half-life is more than 2.42 h. In series [4], the microsomal CLint was less than 9.6 µL/min/mg. In addition, in series [5], the inhibition at 10 µM is 75 to 100% and the inhibition at 30 µM was 75 to 100%. In series [6], the inhibition at 1 µM was 50 to 74% and the inhibition at 10 µM was 75 to 100%. Further, in series [7], the inhibition at 1 µM was 0 to 24% and the inhibition at 10 µM was 50 to 74%.

On to `Cn1cc(-c2cc(Cl)c(Cl)c3oc4c(c23)CN(C(=O)CN)CC4)cn1` [Compound 33], for which, in series [8], the LogK is more than 4.39, the “% Remaining at 6 hr” value was 90.87%, the recovery at 6 h is less than 82.4% and the fraction unbound at 6 hr is less than 4e-05. In series [1], the “Remaining (NCF = 60 min)” value was determined as 109.6% and the “Remaining (T = 60 min)” value amounted to 87.6%. Also, in series [1] (human, liver microsomes), the CLint scaled is less than 8.6 mL/min/kg, the half-life was more than 2.42 h and the microsomal CLint was less than 9.6 µL/min/mg. Further, in series [2], the “Cell viability 10 μM” value was “+++ (+, ++, and +++ mean the compound respectively shows 25-49%; 50-74%; or 75-100% viability to cells)”; the “Cell viability 30 μM” value was “+ (+, ++, and +++ mean the compound respectively shows 25-49%; 50-74%; or 75-100% viability to cells)”. In series [3], this compound showed an inhibition at 10 µM of 25 to 49% and an inhibition at 30 µM of 75 to 100%. Also, in series [4], the “Remaining (NCF = 60 min)” value worked out at 90.0%, the “Remaining (T = 60 min)” value stood at 72.5%, the CLint scaled was found to be 38.5 mL/min/kg and the half-life turned out to be 2.38 h. In series [4], this compound yielded a microsomal CLint of 9.7 µL/min/mg. Also, in series [5], the inhibition at 10 µM was 25 to 49% and the inhibition at 30 µM is 75 to 100%. Also, in series [6], the inhibition at 1 µM is 50 to 74% and the inhibition at 10 µM is 75 to 100%. In addition, in series [7], the inhibition at 1 µM was 75 to 100% and the inhibition at 10 µM was in the range of 75 to 100%.

Consider `CCCc1nc2c(C)cc(-c3nc4ccccc4n3C)cc2n1Cc1ccc(-c2ccccc2C(=O)O)cc1` [Telmisartan, reference compound], for which, in series [8], the LogK is 1.72, the “% Remaining at 6 hr” value was 103.38%, the recovery at 6 h came out at 99.3% and the fraction unbound at 6 hr was 0.0188.

For `Cn1cc(-c2cc(Cl)c(Cl)c3sc4c(c23)CCN(C(=O)CN)C4)cn1` [Compound 74], in series [8], the LogK is listed as 1.12, the “% Remaining at 6 hr” value is reported as 98.24%, the recovery at 6 h stood at 92.8% and the fraction unbound at 6 hr was 0.0706. Further, in series [1], the “Remaining (NCF = 60 min)” value was 89.2% and the “Remaining (T = 60 min)” value came to 93.6%. In series [1] (human, liver microsomes), this compound had a CLint scaled of less than 8.6 mL/min/kg, a half-life of more than 2.42 h and a microsomal CLint of less than 9.6 µL/min/mg. For the same compound, in series [2], the “Cell viability 10 μM” value is “+++ (+, ++, and +++ mean the compound respectively shows 25-49%; 50-74%; or 75-100% viability to cells)”; the “Cell viability 30 μM” value is reported as “− (Cell viability <24%, in THP1 cells is expressed as “−”)”. In series [3], this compound had an inhibition at 10 µM of 75 to 100% and an inhibition at 30 µM of 75 to 100%. In addition, in series [4], the “Remaining (NCF = 60 min)” value came out at 97.8%, the “Remaining (T = 60 min)” value is 84.8%, the CLint scaled is less than 38 mL/min/kg and the half-life is more than 2.42 h. The compound also showed a microsomal CLint in series [4] of less than 9.6 µL/min/mg. In series [5], this compound returned an inhibition at 10 µM of 25 to 49% and an inhibition at 30 µM of 50 to 74%. For the same compound, in series [6], the inhibition at 1 µM lay within 0 to 24% and the inhibition at 10 µM fell in the range of 25 to 49%. Besides, in series [7], the inhibition at 1 µM fell in the range of 25 to 49% and the inhibition at 10 µM lay in the range of 75 to 100%.

`O=C(O)Cc1ccccc1Nc1c(Cl)cccc1Cl` [Diclofenac, reference compound]: in series [1], the “Remaining (NCF = 60 min)” value was determined as 114.8% and the “Remaining (T = 60 min)” value was 0.0%. In series [1] (human, liver microsomes), the “CLint(mic)” value was found to be 323.6 µL/min/mg and the “T½” value was found to be 4.3 min. Moreover, in series [4], the “Remaining (NCF = 60 min)” value is 100.4%, the “Remaining (T = 60 min)” value amounted to 33.1%, the half-life was 0.633 h and the microsomal CLint worked out at 36.5 µL/min/mg.
